Test results taken from patent US6403626B1, “Benzimidazole derivatives” (Synaptic Pharmaceutical Corporation, priority 1994, dated 2002).
Like-named read-outs stand apart in the source and are kept apart here.

How the values were obtained:
[1] = biological target: α2C Human Adrenergic Receptor (Homo sapiens, UniProt P18825); assay: Equilibrium competition binding, [3H] rauwolscine, membranes of transfected LM(tk-) cells
[2] = biological target: T1, α1A Human Adrenergic Receptor (Homo sapiens, UniProt P25100); assay: Equilibrium competition binding, [3H] prazosin, membranes of transfected LM(tk-) cells
T1 construct: expressed in transfected cells; host or cells: LM(tk-) cells
T1 sequence (P25100 1-572): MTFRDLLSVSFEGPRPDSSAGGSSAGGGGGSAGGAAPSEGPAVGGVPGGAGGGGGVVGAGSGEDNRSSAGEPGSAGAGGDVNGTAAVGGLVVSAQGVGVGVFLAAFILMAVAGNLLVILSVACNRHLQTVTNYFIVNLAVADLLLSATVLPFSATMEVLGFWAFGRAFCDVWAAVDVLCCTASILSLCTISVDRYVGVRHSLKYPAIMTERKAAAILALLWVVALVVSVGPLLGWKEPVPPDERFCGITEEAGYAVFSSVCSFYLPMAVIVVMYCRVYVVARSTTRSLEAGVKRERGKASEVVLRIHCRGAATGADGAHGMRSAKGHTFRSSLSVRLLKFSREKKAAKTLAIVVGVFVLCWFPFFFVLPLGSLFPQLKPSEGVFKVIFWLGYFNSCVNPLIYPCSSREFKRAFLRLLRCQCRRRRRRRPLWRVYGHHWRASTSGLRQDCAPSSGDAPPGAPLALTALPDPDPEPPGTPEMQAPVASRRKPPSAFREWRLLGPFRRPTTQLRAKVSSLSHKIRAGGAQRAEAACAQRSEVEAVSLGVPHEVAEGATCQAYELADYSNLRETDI
Experimental: (§1) Binding and functional assays were performed using stably transfected human alpha adrenergic receptors. Equilibrium competition binding assays were performed with membrane preparations from cultured LM(tk-) cells stably transfected with the cloned human adrenoceptor subtypes except for α2b, which was expressed in Y-1 cells, using [^3H] prazosin for α1 receptors and [^3H] rauwolscine for α2 receptors.
(§2) Transfected cells from culture flasks were scraped into 5 ml of 5 mM Tris-HCl, 5 mM EDTA, pH 7.5, and lysed by sonication. The cell lysates were centrifuged at 1000 rpm for 5 min at 4° C., and the supernatant was centrifuged at 30,000×g for 20 min at 4° C. The pellet was suspended in 50 mM Tris-HCl, 1 mM MgCl2, and 0.1% ascorbic acid at pH 7.5. Binding of α2 antagonist [^3H] rauwolscine ([…]) to membrane preparations of LM(tk-) cells was done in a final volume of 0.25 ml and incubated at 37° C. for 20 min. Nonspecific binding was determined in the presence of 10 μM phentolamine. The reaction was stopped by filtration through GF/B filters using a cell harvester.
(§3) Stable cell lines were selected as described above.

[3] = biological target: T2, α1C Human Adrenergic Receptor (Homo sapiens, UniProt P35348); assay: as above
T2 construct: expressed in transfected cells; host or cells: LM(tk-) cells
T2 sequence (P35348 1-466): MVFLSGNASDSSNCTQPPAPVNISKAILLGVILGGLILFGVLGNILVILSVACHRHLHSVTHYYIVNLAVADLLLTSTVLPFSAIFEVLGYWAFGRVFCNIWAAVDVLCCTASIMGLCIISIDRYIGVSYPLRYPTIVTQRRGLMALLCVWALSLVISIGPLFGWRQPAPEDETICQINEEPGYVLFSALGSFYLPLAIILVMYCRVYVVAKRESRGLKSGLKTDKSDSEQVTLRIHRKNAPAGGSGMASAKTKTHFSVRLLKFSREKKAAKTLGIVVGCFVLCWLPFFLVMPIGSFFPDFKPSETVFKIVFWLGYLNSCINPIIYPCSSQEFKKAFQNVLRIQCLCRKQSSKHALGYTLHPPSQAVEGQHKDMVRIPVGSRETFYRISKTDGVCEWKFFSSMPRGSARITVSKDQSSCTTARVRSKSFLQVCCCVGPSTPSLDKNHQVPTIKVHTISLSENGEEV
Experimental: as §1, §2
The construct involved ligation three partial overlapping fragments: a 5′ 0.6 kb HincII genomic clone, a central 1.8 EcoRI hippocampal cDNA clone, and a 3′ 0.6 Kb PstI genomic clone. The hippocampal cDNA fragment overlaps with the 5′ and 3′ genomic clones so that the HincII and PstI sites at the 5 and 3′ ends of the cDNA clone, respectively, were utilized for ligation. This full-length clone was cloned into the KpnI site of the expression vector, using the 5′ and 3′ KpnI sites of the fragment, derived from vector (i.e., pBluescript) and 3′-untranslated sequences, respectively. Stable cell lines were selected as described above.

[4] = biological target: T3, α2C Human Adrenergic Receptor (Homo sapiens, UniProt P18825); assay: Equilibrium competition binding, [3H] rauwolscine, membranes of transfected LM(tk-) cells; remark: listed apart in the source
T3 sequence (P18825 1-462): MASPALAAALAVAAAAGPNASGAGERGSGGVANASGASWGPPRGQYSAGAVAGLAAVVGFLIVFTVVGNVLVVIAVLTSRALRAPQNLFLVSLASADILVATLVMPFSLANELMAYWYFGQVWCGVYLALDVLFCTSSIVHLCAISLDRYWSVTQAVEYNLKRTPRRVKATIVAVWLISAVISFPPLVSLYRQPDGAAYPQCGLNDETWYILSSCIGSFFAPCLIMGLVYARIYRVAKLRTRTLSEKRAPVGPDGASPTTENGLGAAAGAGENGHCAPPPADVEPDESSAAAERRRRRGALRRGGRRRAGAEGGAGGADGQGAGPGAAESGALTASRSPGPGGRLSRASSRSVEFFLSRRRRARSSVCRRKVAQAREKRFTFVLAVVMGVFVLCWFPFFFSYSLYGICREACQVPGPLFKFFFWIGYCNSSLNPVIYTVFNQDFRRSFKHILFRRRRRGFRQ

[5] = biological target: T4, α1B Human Adrenergic Receptor (Homo sapiens, UniProt P35368); assay: Equilibrium competition binding, [3H] prazosin, membranes of transfected LM(tk-) cells
T4 construct: The entire coding region of α1B(1563 bp); expressed in transfected cells; host or cells: LM(tk-) cells
T4 sequence (P35368 1-520): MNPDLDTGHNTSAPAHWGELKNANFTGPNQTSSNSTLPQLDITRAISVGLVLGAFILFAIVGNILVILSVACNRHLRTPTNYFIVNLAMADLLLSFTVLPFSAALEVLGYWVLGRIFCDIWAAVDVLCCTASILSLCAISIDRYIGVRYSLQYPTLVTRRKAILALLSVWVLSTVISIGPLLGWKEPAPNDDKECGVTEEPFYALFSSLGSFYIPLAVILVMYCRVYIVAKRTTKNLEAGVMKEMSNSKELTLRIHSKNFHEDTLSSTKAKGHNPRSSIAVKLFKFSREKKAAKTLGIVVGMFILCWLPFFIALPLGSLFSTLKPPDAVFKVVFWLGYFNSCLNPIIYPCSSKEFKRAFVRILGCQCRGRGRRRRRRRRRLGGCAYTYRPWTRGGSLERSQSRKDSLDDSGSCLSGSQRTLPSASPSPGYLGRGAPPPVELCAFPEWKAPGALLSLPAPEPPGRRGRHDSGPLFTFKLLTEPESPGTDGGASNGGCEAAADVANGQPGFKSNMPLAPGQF
Experimental: as §1, §2
The construct involved ligating the full-length containing EcoRI brainstem cDNA fragment from ZapII into the expression vector. The stable cell lines were selected as described above.

[6] = biological target: T5, α2B Human Adrenergic Receptor (Homo sapiens, UniProt P18089); assay: Equilibrium competition binding, [3H] rauwolscine, membranes of transfected Y-1 cells
T5 construct: expressed in transfected cells; host or cells: Y-1 cells
T5 sequence (P18089 1-450): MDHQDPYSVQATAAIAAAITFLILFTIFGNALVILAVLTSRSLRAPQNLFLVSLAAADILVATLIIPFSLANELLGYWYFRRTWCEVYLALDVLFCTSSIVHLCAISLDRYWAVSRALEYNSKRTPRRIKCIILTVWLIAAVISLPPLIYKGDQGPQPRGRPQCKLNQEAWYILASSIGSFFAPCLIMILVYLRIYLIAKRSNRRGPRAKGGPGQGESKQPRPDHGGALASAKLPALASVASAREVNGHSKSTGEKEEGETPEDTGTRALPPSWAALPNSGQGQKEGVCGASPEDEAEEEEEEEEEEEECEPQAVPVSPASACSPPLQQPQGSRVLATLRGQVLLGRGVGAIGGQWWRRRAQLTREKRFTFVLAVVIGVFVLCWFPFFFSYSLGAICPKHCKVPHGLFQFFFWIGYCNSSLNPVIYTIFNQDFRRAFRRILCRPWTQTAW
Experimental: as §1, §3, §2

[7] = cloned human receptor, [3H] prazosin, read-out: pKi Alpha-1 C (converted)
[8] = cloned human receptor, [3H] prazosin, read-out: pKi Alpha-1 B (converted)
[9] = cloned human receptor, [3H] rauwolscine, read-out: pKi Alpha-2 B (converted)
[10] = cloned human receptor, [3H] prazosin
[11] = cloned human receptor, [3H] rauwolscine

SMILES | Ki [1] [µM] | Ki [3, 7] [µM] | Ki [4] [µM] | Ki [5, 8] [µM] | Ki [6, 9] [µM] | Ki [2] [µM] | other results
Cn1cnc2cc(NC3=NCCN3)ccc21 | 0.155 | – | – | – | – | – | –
CCCCc1c(NC2=NCCN2)ccc2nc[nH]c12 | 0.12 | – | – | – | – | – | –
Brc1c(NC2=NCCN2)ccc2c1ncn2Cc1ccccc1 [Example 33, 1-Benzyl-4-bromo-5-(2-imidazolin-2-ylamino)Benzimidazole] | – | 1.45 | 0.162 | 33.1 | 0.0138 | – | Ki ([2]; cloned human receptor, [3H] prazosin, read-out: pKi Alpha-1 A (converted)): 1.82 µM
Brc1c(NC2=NCCN2)ccc2ncn(Cc3ccccc3)c12 [Example 35, 3-Benzyl-4-bromo-5-(2-imidazolin-2-ylamino)Benzimidazole] | – | – | 0.017 | – | 0.0158 | 0.309 | Ki [3]: 0.794 µM; Ki [5]: 1.95 µM
Cc1cc(NC2=NCCN2)cc2[nH]cnc12 | 0.126 | – | – | – | – | – | –
Cn1cnc2ccc(NC3=NCCN3)cc21 [Example 11, 3-Methyl-5-(2-imidazolin-2-ylamino)Benzimidazole] | – | 5.75 | 1.12 | 35.5 | – | 10 | Ki [6]: 0.224 µM
c1ccc(Cn2cnc3ccc(NC4=NCCN4)cc32)cc1 [Example 34, 3-Benzyl-5-(2-imidazolin-2-ylamino)Benzimidazole] | – | – | 0.186 | – | 0.0891 | 2.57 | Ki [3]: 1.35 µM; Ki [5]: 12 µM
CCCCc1cc(NC2=NCCN2)cc2[nH]cnc12 | 0.204 | – | – | – | – | – | –
CC(C)n1cnc2cc(NC3=NCCN3)ccc21 [Example 17, 1-Isopropyl-5-(2-imidazolin-2-ylamino)Benzimidazole] | – | 9.12 | 0.832 | – | – | 10.5 | Ki [5]: 44.7 µM; Ki [6]: 0.661 µM
CC(C)n1cnc2c(Br)c(NC3=NCCN3)ccc21 [Example 18, 1-Isopropyl-4-bromo-5-(2-imidazolin-2-ylamino)Benzimidazole] | – | 0.891 | 0.282 | 20 | – | 2.69 | Ki [6]: 0.372 µM
Brc1c(NC2=NCCN2)ccc2ncn(C3CCCC3)c12 [Example 28, 3-Cyclopentyl-4-bromo-5-(2-imidazolin-2-ylamino)Benzimidazole] | – | – | 0.0955 | – | 0.0417 | 0.661 | Ki [3]: 3.8 µM; Ki [5]: 10.5 µM
c1cc2ncn(C3CCCC3)c2cc1NC1=NCCN1 [Example 27, 3-Cyclopentyl-5-(2-imidazolin-2-ylamino)Benzimidazole] | – | 6.92 | 0.724 | 33.9 | – | 8.32 | Ki [6]: 1.02 µM
CC(C)(C)c1nc2ccc(NC3=NCCN3)c(Br)c2[nH]1 | 0.295 | – | – | – | – | – | –
CC(C)Cn1cnc2c(Br)c(NC3=NCCN3)ccc21 [Example 23, 1-Isobutyl-4-bromo-5-(2-imidazolin-2-ylamino)Benzimidazole] | – | 0.38 | 0.229 | 38 | 0.309 | 5.01 | –
CC(C)n1cnc2ccc(NC3=NCCN3)cc21 [Example 20, 3-Isopropyl-5-(2-imidazolin-2-ylamino)Benzimidazole] | – | 11.2 | 0.631 | 58.9 | 0.724 | 14.8 | –
OCCn1cnc2ccc(NC3=NCCN3)c(Br)c21 [Example 39, 3-(2-Hydroxyethyl)-4-bromo-5-(2-imidazolin-2-ylamino)Benzimidazole] | – | – | 0.617 | – | 0.49 | 1.58 | Ki [3]: 4.79 µM; Ki [5]: 11 µM
c1cc2c(cc1NC1=NCCN1)ncn2C1CCCC1 [Example 25, 1-Cyclopentyl-5-(2-imidazolin-2-ylamino)Benzimidazole] | – | 9.77 | 0.437 | 44.7 | – | 6.17 | Ki [6]: 0.646 µM
Brc1c(NC2=NCCN2)ccc2ncn(CC3CCCCC3)c12 [Example 31, 3-Cyclohexylmethyl-4-bromo-5-(2-imidazolin-2-ylamino)Benzimidazole] | – | – | 0.0389 | – | 0.0372 | 0.257 | Ki [3]: 0.372 µM; Ki [5]: 2.14 µM
CCc1nc2ccc(NC3=NCCN3)c(Br)c2[nH]1 | 0.182 | – | – | – | – | – | –
Cc1cc2nc[nH]c2cc1NC1=NCCN1 | 0.214 | – | – | – | – | – | –
CCCn1cnc2c(Br)c(NC3=NCCN3)ccc21 [Example 14, 1-Propyl-4-bromo-5-(imidazolin-2-ylamino)Benzimidazole] | – | – | – | – | – | – | pKi Alpha-1 A [2, 10]: 5.63; pKi Alpha-1 C [3, 10]: 6.21; pKi Alpha-2 C [4, 11]: 6.64; pKi Alpha-1 B [5, 10]: 4.69; pKi Alpha-2 B [6, 11]: 6.66
